In patent US7868026B2, “Therapeutic compounds” (Pfizer Inc., priority 2005, dated 2011):
Read-outs that look alike come from different tables or passages of the source.

How the values were obtained:
Assay type in all cases: biochemical
[1] = molecular target: T1, CYP3A4 (Homo sapiens, UniProt P08684); assay: Determination of compound Kiapp against recombinant CYP3A4 enzyme (BFC fluorescent substrate)
Summary of the method: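 Kiapp derived from initial velocities over the first 5 min of BFC (5 uM) oxidation, using Morrison's tight-binding equation for non-partial and Szedlacsek's for partial inhibitors. Inhibitor first pre-incubated ≥30 min with CYP3A4 (5.5 or 8 nM, ±b5) in pH 7.0 phosphate/TCEP/2% DMF at room temperature; 200 uM NADPH initiated.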

[2] = molecular target: T1, CYP3A4; assay: Determination of IC50 against CYP3A4 by measurement of inhibition of testosterone metabolism (human liver microsomes, 6-β-OH-testosterone by LC-MS/MS); design: 0.1 mg/mL human liver microsomes; conditions: read-out: IC50 (Testo.)
Summary of the method: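 6-β-OH-testosterone formation was read by LC-MS/MS (MRM, internal standard, standard curve) after eight minutes. Reaction contained testosterone 25 μM, NADPH 1 mM and microsomal protein 0.1 mg/mL in pH 7.4 potassium phosphate (100 mM).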

[3] = molecular target: T1, CYP3A4; assay: Determination of IC50 against CYP3A4 by measurement of inhibition of midazolam metabolism (human liver microsomes, 1-hydroxymidazolam by LC-MS/MS); design: 0.1 mg/mL human liver microsomes; conditions: 2 μM midazolam, 0.1 mg/mL human liver microsomes
Summary of the method: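 Human liver microsomes (0.1 mg/mL) incubated 8 min with 2 μM midazolam and 1 mM NADPH in 100 mM potassium phosphate, pH 7.4. 1-Hydroxymidazolam quantified by LC-MS/MS (MRM) as peak area ratio to internal standard against a metabolite standard curve.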

[4] = Baculo. enzyme preparation, read-out: Kiapp (BFC, Baculo.)
[5] = Super. enzyme preparation, read-out: Kiapp (BFC, Super.)

T1 sequence (P08684 whole entry): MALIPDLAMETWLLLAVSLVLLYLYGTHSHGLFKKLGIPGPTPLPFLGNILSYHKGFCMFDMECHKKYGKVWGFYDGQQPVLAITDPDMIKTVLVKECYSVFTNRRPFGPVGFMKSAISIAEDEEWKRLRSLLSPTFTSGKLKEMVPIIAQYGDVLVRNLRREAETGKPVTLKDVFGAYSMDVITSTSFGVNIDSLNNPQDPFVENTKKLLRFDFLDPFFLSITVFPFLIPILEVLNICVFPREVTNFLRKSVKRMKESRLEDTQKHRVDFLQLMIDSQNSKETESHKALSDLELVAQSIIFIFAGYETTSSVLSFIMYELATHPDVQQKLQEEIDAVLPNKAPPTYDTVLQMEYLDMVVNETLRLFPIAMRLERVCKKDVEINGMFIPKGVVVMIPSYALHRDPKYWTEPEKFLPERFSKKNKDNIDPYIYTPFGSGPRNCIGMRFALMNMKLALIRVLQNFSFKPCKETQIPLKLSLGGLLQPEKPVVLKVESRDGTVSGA

| Compound | Ki [1, 4] [nM] | Ki [1, 5] [nM] | IC50 [2] [nM] | IC50 [3] [nM] |
| --- | --- | --- | --- | --- |
| Cc1cncc(NS(=O)(=O)c2ccccc2C(=O)NCCOc2ccccc2)c1 [Example 229, 2-{[(5-methylpyridin-3-yl)amino]sulfonyl}-N-(2-phenoxyethyl)benzamide] | 203 | 24.3 | 37 | 16 |
| CCCCN(C)C(=O)c1ccccc1S(=O)(=O)Nc1cnccc1C [Example 230, N-butyl-N-methyl-2-{[(4-methylpyridin-3-yl)amino]sulfonyl}benzamide] | 373 | 78.4 | 87 | 42 |
| COc1cncc(NS(=O)(=O)c2ccccc2C(=O)N2CCC(c3ccccc3)CC2)c1 [Example 231, N-(5-methoxypyridin-3-yl)-2-[(4-phenylpiperidin-1-yl)carbonyl]benzenesulfonamide] | 59.1 | 8.9 | 31 | 20 |
| COc1cncc(NS(=O)(=O)c2ccccc2C(=O)N[C@H]2C[C@@H]2c2ccccc2)c1 [Example 232, 2-{[(5-methoxypyridin-3-yl)amino]sulfonyl}-N-[(1S2R)-2-phenylcyclopropyl]benzamide] | 99.4 | 11.5 | 32 | 28 |
| COc1cncc(NS(=O)(=O)c2ccccc2C(=O)NCc2ccc(S(C)(=O)=O)cc2)c1 [Example 233, 2-{[(5-methoxypyridin-3-yl)amino]sulfonyl}-N-[4-(methylsulfonyl)benzyl]benzamide] | > 1000 | 182 | 195 | 67 |
| COc1cncc(NS(=O)(=O)c2ccccc2C(=O)NCCCc2ccccc2OC)c1 [Example 234, N-[3-(2-methoxyphenyl)propyl]-2-{[(5-methoxypyridin-3-yl)amino]sulfonyl}benzamide] | 37.9 | 8.1 | > 750 | > 750 |
| COc1cncc(NS(=O)(=O)c2ccccc2C(=O)NCCCc2ccccc2)c1 [Example 235, 2-{[(5-methoxypyridin-3-yl)amino]sulfonyl}-N-(3-phenylpropyl)benzamide] | 107 | 8.7 | 19 | 10 |
| COCCCNC(=O)c1ccccc1S(=O)(=O)Nc1cncc(OC)c1 [Example 236, N-(3-methoxypropyl)-2-{[(5-methoxypyridin-3-yl)amino]sulfonyl}benzamide] | > 1000 | 142 | 223 | 132 |
| CCOCCNC(=O)c1ccccc1S(=O)(=O)Nc1cncc(OC)c1 [Example 237, N-(2-ethoxyethyl)-2-{[(5-methoxypyridin-3-yl)amino]sulfonyl}benzamide] | 979 | 142 | 215 | 125 |
| COc1cncc(NS(=O)(=O)c2ccccc2C(=O)NCCOc2ccccc2)c1 [Example 238, 2-{[(5-methoxypyridin-3-yl)amino]sulfonyl}-N-(2-phenoxyethyl)benzamide] | 230 | 18 | 31 | 17 |
| COCCNC(=O)c1ccccc1S(=O)(=O)Nc1cncc(OC)c1 [Example 239, N-(2-methoxyethyl)-2-{[(5-methoxypyridin-3-yl)amino]sulfonyl}benzamide] | 849 | 191 | 301 | 163 |
| COc1cncc(NS(=O)(=O)c2ccccc2C(=O)NCCc2ccccc2Cl)c1 [Example 240, N-[2-(2-chlorophenyl)ethyl]-2-{[(5-methoxypyridin-3-yl)amino]sulfonyl}benzamide] | 22 | 3.2 | 9 | 4 |
| COc1cncc(NS(=O)(=O)c2ccccc2C(=O)NCCOC(C)C)c1 [Example 241, N-(2-isopropoxyethyl)-2-{[(5-methoxypyridin-3-yl)amino]sulfonyl}benzamide] | 751 | 97 | 150 | 77 |
| COc1cncc(NS(=O)(=O)c2ccc(OCCN3CCNCC3)cc2C(=O)N(C)C(C)C)c1 [Example 242, N-isopropyl-2-{[(5-methoxypyridin-3-yl)amino]sulfonyl}-N-methyl-5-(2-piperazin-1-ylethoxy)benzamide] | 246 | 200 | 289 | 254 |
| COc1cncc(NS(=O)(=O)c2ccc(OC3CCNCC3)cc2C(=O)N(C)C(C)C)c1 [Example 243, N-isopropyl-2-{[(5-methoxypyridin-3-yl)amino]sulfonyl}-N-methyl-5-(piperidin-4-yloxy)benzamide] | 28.4 | 85.8 | 264 | 69 |
| COCCN(C(=O)c1ccccc1S(=O)(=O)Nc1cncc(OC)c1)C(C)C [Example 244, N-isopropyl-N-(2-methoxyethyl)-2-{[(5-methoxypyridin-3-yl)amino]sulfonyl}benzamide] | 45.6 | 26.8 | 52 | < 16 |
| CCCN(C)C(=O)c1ccccc1S(=O)(=O)Nc1cncc(OC)c1 [Example 245, 2-{[(5-methoxypyridin-3-yl)amino]sulfonyl}-N-methyl-N-propylbenzamide] | 164 | 18.7 | 63 | 29 |
| CCCN(CCOC)C(=O)c1ccccc1S(=O)(=O)Nc1cncc(OC)c1 [Example 246, N-(2-methoxyethyl)-2-{[(5-methoxypyridin-3-yl)amino]sulfonyl}-N-propylbenzamide] | 50.3 | 18.5 | 72 | 36 |
| COc1cncc(NS(=O)(=O)c2ccc(OCCN3CCOCC3)cc2C(=O)N(C)C(C)C)c1 [Example 247, N-isopropyl-2-{[(5-methoxypyridin-3-yl)amino]sulfonyl}-N-methyl-5-(2-morpholin-4-ylethoxy)benzamide] | 48.4 | 88.9 | 108 | 54 |
| COc1cncc(NS(=O)(=O)c2ccc(OCCCN(C)C)cc2C(=O)N(C)C(C)C)c1 [Example 248, 5-[3-(dimethylamino)propoxy]-N-isopropyl-2-{[(5-methoxypyridin-3-yl)amino]sulfonyl}-N-methylbenzamide] | 439 | 193 | 235 | 108 |
| CCOc1ccncc1NS(=O)(=O)c1ccccc1C(=O)NC(C)(C)C [Example 249, N-(tert-butyl)-2-{[(4-ethoxy-pyridin-3-yl)amino]sulfonyl} benzamide] | 60.1 | 37.7 | 45 | 28.5 |
| CCOc1ccncc1NS(=O)(=O)c1ccccc1C(=O)NCc1ccc(F)c(C(F)(F)F)c1 [Example 250, 2-{[(4-ethoxypyridin-3-yl)amino]sulfonyl}-N-[4-fluoro-3-(trifluoromethyl)benzyl]benzamide] | 4.3 | 3.14 | 7 | 10 |
| CCOc1ccncc1NS(=O)(=O)c1ccccc1C(=O)N(C)Cc1ccc(F)c(F)c1 [Example 251, N-(3,4-difluorobenzyl)-2-{[(4-ethoxypyridin-3-yl)amino]sulfonyl}-N-methylbenzamide] | 8.6 | 5.31 | 12 | 10 |
| CCOc1ccncc1NS(=O)(=O)c1ccccc1C(=O)NCc1ccc(F)c(F)c1 [Example 252, N-(3,4-difluorobenzyl)-2-{[(4-ethoxypyridin-3-yl)amino]sulfonyl}benzamide] | 17.1 | 5.41 | 9 | 9 |
| COc1cncc(NS(=O)(=O)c2ccc(OCCN3CCNCC3)cc2C(=O)NCc2ccc(F)cc2)c1 [Example 253, N-(4-fluorobenzyl)-2-{[(5-methoxypyridin-3-yl)amino]sulfonyl}-5-(2-piperazin-1-ylethoxy)benzamide] | 203 | 35.2 | 80 | 50 |
| COc1ccncc1NS(=O)(=O)c1ccccc1C(=O)NC(C)(C)C [Example 254, N-(tert-butyl)-2-{[(4-methoxypyridin-3-yl)amino]sulfonyl}benzamide] | 284 | 122 | 120 | 40 |
| COc1ccncc1NS(=O)(=O)c1ccccc1C(=O)NCc1ccc(F)c(C(F)(F)F)c1 [Example 255, N-[4-fluoro-3-(trifluoromethyl)benzyl]-2-{[(4-methoxypyridin-3-yl)amino]sulfonyl}benzamide] | 22.7 | 4.06 | 9 | 7 |
| COc1ccncc1NS(=O)(=O)c1ccccc1C(=O)N(C)Cc1ccc(F)c(F)c1 [Example 256, N-(3,4-difluorobenzyl)-2-{[(4-methoxypyridin-3-yl)amino]sulfonyl}-N-methylbenzamide] | 30.2 | 5.25 | 16 | 14.5 |
| COc1ccncc1NS(=O)(=O)c1ccccc1C(=O)NCc1ccc(F)c(F)c1 [Example 257, N-(3,4-difluorobenzyl)-2-{[(4-methoxypyridin-3-yl)amino]sulfonyl}benzamide] | 101 | 14.1 | 14 | 15 |
